The record followed here is patent EP0354693A1, “Therapeutic agents” (The Boots Company PLC, priority 1988, dated 1990).

This experiment relates to BALB/c mice. The experiment can be described thus: cutaneous hypersensitivity test (CH test), oxazolone-induced ear swelling. The experiment is classed as in vivo. Conditions: Mus musculus, ip; intraperitoneal, at sensitisation and every 24 hours for a further 7 days; lowest dose used giving 20% or greater reduction in ear swelling (p <0.05) in two out of three CH tests; read-out: Minimum Effective Dose. The protocol:
This test was carried out in the following way.
Female BALB/c mice, weight range 16-24 g, were used in groups of eight. The abdomen of each mouse was shaved and 20 µl of a solution of a sensitising agent, 5% w/v 4-ethoxymethylene-2-phenyl-2-oxazolin-5-one (oxazolone) in acetone:ethanol (1:1 by volume), was applied to the shaved area. Immediately after sensitisation, the test compound in one of the dosages listed below was injected intraperitoneally as a suspension in 1.5% v/v sorbitan esters, under the trade name Tween 80, in sterile water (100µl). 100 µl of the same suspension was injected likewise every 24 hours for a further 7 days. The dosages used were selected from the following values: 50, 30, 10, 3, 1, 0.3, 0.1, 0.03 or 0.01 mg/kg.
Two groups of eight BALB/c mice were used as a control simultaneously with each test in a similar manner to that described above except that no test compound was included in the daily injections.
On the seventh day after sensitisation, 10 µl of a solution of 1% w/v oxazolone in acetone: olive oil (either 1:1 or 3:1 by volume) was applied to one ear (the challenged ear) of each of the test mice and the control mice. After 24 hours the thickness of the challenged ear and the thickness of the non-challenged ear of the same animal were measured with an engineer's screw gauge micrometer. The difference in thickness between the challenged ear and the non-challenged ear in each animal is a measure of the response of that animal to oxazolone. A comparison between the response of mice treated with the test compound and mice treated with the control indicates the effectiveness of the test compound as an immunomodulatory agent. The compounds were considered to be active at a particular dose if a 20% or greater reduction in ear swelling, which was statistically significant (p <0.05) according to Dunnett's test, between treated and control groups was obtained in two out of three CH tests, (or, where more than three tests have been carried out, a majority of the tests) at that dose (see for example Int. Arch. Allergy, 38, p246-259 (1970)).
Each of the compounds of formula I illustrated in Table A below was active at 50 mg/kg in two out of three tests at 50 mg/kg unless indicated otherwise (see Notes following the Table). The minimum effective dose (ie the lowest dose of those used at which the compound is active as defined above) for each compound is given in Table A. The Example (Ex) number or numbers listed adjacent to each compound indicates the process or processes illustrating the preparation of that compound in the Examples.

Take `Cc1oc2ccc(Cl)cc2c2nn(-c3ccc(Cl)cc3)c(=O)c1-2` [Example 49, 8-chloro-2-(4-chlorophenyl)-4-methyl-[1]benzopyrano[4,3-c]pyrazol-3(2H)-one]: the minimal effective dose was 50 mg/kg.
To `Cc1oc2ccc(F)cc2c2nn(-c3ccc(Cl)cc3)c(=O)c1-2` [Example 54, 2-(4-chlorophenyl)-8-fluoro-4-methyl-[1]benzopyrano[4,3-c]pyrazol-3(2H)-one] belongs 0.1 mg/kg.
`Cc1oc2ccccc2c2nn(-c3ccc(C(F)(F)F)cc3)c(=O)c1-2` [Example 47, 4-methyl-2-(4-trifluoromethylphenyl)-[1]benzopyrano[4,3-c]pyrazol-3(2H)-one]: the minimal effective dose amounted to 1 mg/kg.
To `Cc1oc2ccccc2c2nn(-c3ccc(Cl)c(Cl)c3)c(=O)c1-2` [Example 36, 2-(3,4-dichlorophenyl)-4-methyl[1]-benzopyrano[4,3-c]pyrazol-3(2H)-one] belongs 0.3 mg/kg; to `COc1ccc(-n2nc3c4ccccc4oc(C)c-3c2=O)cc1` [Example 39, 2-(4-methoxyphenyl)-4-methyl[1]benzo-pyrano[4,3-c]pyrazol-3(2H)-one], 50 mg/kg.
The same measure for `Cc1oc2ccccc2c2nn(-c3ccc(Br)cc3)c(=O)c1-2` [Example 44, 2-(4-bromophenyl)-4-methyl[1]benzo-pyrano[4,3-c]pyrazol-3(2H)-one]: 1 mg/kg; for `Cc1oc2ccc(O)cc2c2nn(-c3ccc(Cl)cc3)c(=O)c1-2` [Example 56, 2-(4-chlorophenyl)-8-hydroxy-4-methyl-[1]benzopyrano[4,3-c]pyrazol-3(2H)-one]: 50 mg/kg.
To `CCOC(=O)Cc1oc2ccccc2c2nn(-c3ccc(Cl)cc3)c(=O)c1-2` [Example 41, ethyl 2-(4-chlorophenyl)-3-oxo-2,3-dihydro[1]benzopyrano[4,3-c]pyrazole-4-acetate] belongs 3 mg/kg; to `Cc1oc2ccccc2c2nn(-c3ccccc3)c(=O)c1-2` [Example 42, 4-methyl-2-phenyl[1]benzopyrano-[4,3-c]pyrazol-3(2H)-one], 50 mg/kg; to `Cc1oc2cc(Cl)ccc2c2nn(-c3ccc(Cl)cc3)c(=O)c1-2` [Example 55, 7-chloro-2-(4-chlorophenyl)-4-methyl-[1]benzopyrano[4,3-c]pyrazol-3(2H)-one], 50 mg/kg.
For the compound `Cc1ccc2oc(C)c3c(=O)n(-c4ccc(Cl)cc4)nc-3c2c1` [Example 50, 2-(4-chlorophenyl)-4,8-dimethyl[1]-benzopyrano[4,3-c]pyrazol-3(2H)-one], the minimal effective dose turned out to be 50 mg/kg.
The same measure for `CCOC(=O)Cc1oc2ccccc2c2nn(-c3ccc(F)cc3)c(=O)c1-2` [Example 53, ethyl 2-(4-fluorophenyl)-3-oxo-2,3-dihydro[1]benzopyrano[4,3-c]pyrazole-4-acetate]: 3 mg/kg; for `Cc1oc2cccc(C)c2c2nn(-c3ccc(Cl)cc3)c(=O)c1-2` [Example 52, 2-(4-chlorophenyl)-4,9-dimethyl[1]-benzopyrano[4,3-c]pyrazol-3(2H)-one]: 50 mg/kg; for `Cc1oc2ccccc2c2nn(-c3ccc(F)c(Cl)c3)c(=O)c1-2` [Example 45, 2-(3-chloro-4-fluorophenyl)-4-methyl-[1]benzopyrano[4,3-c]pyrazol-3(2H)-one]: 0.3 mg/kg.
For the compound `Cc1oc2ccccc2c2nn(-c3ccc(F)cc3)c(=O)c1-2` [Example 37, 2-(4-fluorophenyl)-4-methyl[1]benzo-pyrano[4,3-c]pyrazol-3(2H)-one], the minimal effective dose turned out to be 1 mg/kg.
On to `Cc1oc2cc(F)ccc2c2nn(-c3ccc(Cl)cc3)c(=O)c1-2` [Example 48, 2-(4-chlorophenyl)-7-fluoro-4-methyl-[1]benzopyrano[4,3-c]pyrazol-3(2H)-one], for which the minimal effective dose was 50 mg/kg.
Take `Cc1ccc(-n2nc3c4ccccc4oc(C)c-3c2=O)cc1` [Example 43, 4-methyl-2-(4-methylphenyl)[1]benzo-pyrano[4,3-c]pyrazol-3(2H)-one]: the minimal effective dose was determined as 10 mg/kg.
The same measure for `Cc1ccc(-n2nc3c4ccccc4oc(C)c-3c2=O)cc1Cl` [Example 46, 2-(3-chloro-4-methylphenyl)-4-methyl-[1]benzopyrano[4,3-c]pyrazol-3(2H)-one]: 3 mg/kg; for `CCc1oc2ccccc2c2nn(-c3ccc(Cl)cc3)c(=O)c1-2` [Example 40, 2-(4-chlorophenyl)-4-ethyl[1]benzo-pyrano[4,3-c]pyrazol-3(2H)-one]: 50 mg/kg.
Turning to `Cc1oc2ccccc2c2nn(-c3cccc(Cl)c3)c(=O)c1-2` [Example 38, 2-(3-chlorophenyl)-4-methyl[1]benzo-pyrano[4,3-c]pyrazol-3(2H)-one], the minimal effective dose came out at 3 mg/kg.
The same measure for `COc1cccc2oc(C)c3c(=O)n(-c4ccc(Cl)cc4)nc-3c12` [Example 51, 2-(4-chlorophenyl)-9-methoxy-4-methyl-[1]benzopyrano[4,3-c]pyrazol-3(2H)-one]: 50 mg/kg.
